{
  "source": "patent US12624017B2",
  "about": "“Salt form of isoquinolinone type compound as rock inhibitor and preparation method therefor” (GUANGZHOU OCUSUN OPHTHALMIC BIOTECHNOLOGY CO., LTD., priority 2020, dated 2026)",
  "key": {"[1]": {"test_system": "New Zealand rabbits with normal intraocular pressure", "test": "Intraocular pressure reduction, normal intraocular pressure, eye drops in both eyes for 14 days (Operation I)", "format": "in vivo, New Zealand white rabbits", "settings": "for Change in intraocular pressure: vs negative control", "description": "(§1) An intraocular pressure reduction effect and potential ocular toxicity of the compound of formula (I) were inspected with rabbits with normal intraocular pressure by repeated administration of eye drops for 14 days.\n(§2) Male New Zealand white rabbits, aged 97 to 127 days, weighted 2.6-3.5 kg, purchased from Pizhou Oriental Breeding Co., Ltd.\nThe Male New Zealand white rabbits were randomly divided into 7 groups according to body weights, 6 rabbits/group. The animals in Groups 1 to 7 were administrated dropwise with a solvent/control/test article in both eyes in an administration volume of 50 μL/eye, once a day for 14 consecutive days, and the day of first administration was recorded as Day 1. The intraocular pressures of the animals were measured before administration, as well as at 1, 2, 4, 6, 8 and 10 h after administration, respectively. On Days 2 to 14, the intraocular pressures of animals in the K-115 administration group were measured at 1 h after daily administration; and intraocular pressures of the animals in the remaining groups were measured at 4 h after daily administration."}, "[2]": {"test_system": "New Zealand rabbits with normal intraocular pressure", "test": "Intraocular pressure reduction, normal intraocular pressure, Day 1 (Operation II)", "format": "in vivo, New Zealand white rabbits", "settings": "4 mg/mL in right eye, Day 1; for Change in intraocular pressure: vs negative controls", "description": "as §1, §2\n42 male New Zealand white rabbits were randomly grouped into 7 groups according to body weights, 6 rabbits/group. Among the animals in Groups 1-7, the left eye was administrated dropwise with normal saline, and the right eye was administrated dropwise with a solvent/control/test article in an administration volume of 50 μL/eye respectively, once a day for 14 consecutive days, and the day of first administration was recorded as Day 1. The intraocular pressures of the animals were measured before administration on Day 1, as well as at 1 h, 2 h, 4 h, 6 h, 8 h and 10 h after administration on Day 1 (Table 10)."}, "[3]": {"settings": "4 mg/mL once a day, Day 2, 1 h after daily administration"}, "[4]": {"settings": "4 mg/mL once a day, Day 3, 1 h after daily administration"}, "[5]": {"settings": "4 mg/mL once a day, Day 4, 1 h after daily administration"}, "[6]": {"settings": "4 mg/mL once a day, Day 5, 1 h after daily administration"}, "[7]": {"settings": "4 mg/mL once a day, Day 6, 1 h after daily administration"}, "[8]": {"settings": "4 mg/mL once a day, Day 7, 1 h after daily administration"}, "[9]": {"settings": "4 mg/mL once a day, Day 8, 1 h after daily administration"}, "[10]": {"settings": "4 mg/mL once a day, Day 9, 1 h after daily administration"}, "[11]": {"settings": "4 mg/mL once a day, Day 10, 1 h after daily administration"}, "[12]": {"settings": "4 mg/mL once a day, Day 11, 1 h after daily administration"}, "[13]": {"settings": "4 mg/mL once a day, Day 12, 1 h after daily administration"}, "[14]": {"settings": "4 mg/mL once a day, Day 13, 1 h after daily administration"}, "[15]": {"settings": "4 mg/mL once a day, Day 14, 1 h after daily administration"}, "[16]": {"settings": "4 mg/mL, Day 1, 1 h after administration"}, "[17]": {"settings": "4 mg/mL, Day 1, 2 h after administration"}, "[18]": {"settings": "4 mg/mL, Day 1, 4 h after administration"}, "[19]": {"settings": "4 mg/mL, Day 1, 6 h after administration"}, "[20]": {"settings": "4 mg/mL, Day 1, 8 h after administration"}, "[21]": {"settings": "4 mg/mL, Day 1, 10 h after administration"}, "[22]": {"settings": "4 mg/mL, Day 1, before administration"}},
  "data": [
    {"molecule": "C[C@H]1CNCCCN1S(=O)(=O)c1cccc2cncc(F)c12", "note": "[K-115, reference compound]", "values": [
      {"measurement": "Average intraocular pressure in both eyes", "setting": "[1]; [3]", "result": 6.83, "unit": "mmHg"},
      {"measurement": "Change in intraocular pressure", "setting": "[1]; [3]", "result": 4.25, "unit": "mmHg"},
      {"measurement": "Average intraocular pressure in both eyes", "setting": "[1]; [4]", "result": 6.81, "unit": "mmHg"},
      {"measurement": "Change in intraocular pressure", "setting": "[1]; [4]", "result": 3.58, "unit": "mmHg"},
      {"measurement": "Average intraocular pressure in both eyes", "setting": "[1]; [5]", "result": 6.92, "unit": "mmHg"},
      {"measurement": "Change in intraocular pressure", "setting": "[1]; [5]", "result": 3.69, "unit": "mmHg"},
      {"measurement": "Average intraocular pressure in both eyes", "setting": "[1]; [6]", "result": 6.67, "unit": "mmHg"},
      {"measurement": "Change in intraocular pressure", "setting": "[1]; [6]", "result": 4.3, "unit": "mmHg"},
      {"measurement": "Average intraocular pressure in both eyes", "setting": "[1]; [7]", "result": 6.75, "unit": "mmHg"},
      {"measurement": "Change in intraocular pressure", "setting": "[1]; [7]", "result": 2.56, "unit": "mmHg"},
      {"measurement": "Average intraocular pressure in both eyes", "setting": "[1]; [8]", "result": 7.39, "unit": "mmHg"},
      {"measurement": "Change in intraocular pressure", "setting": "[1]; [8]", "result": 2.67, "unit": "mmHg"},
      {"measurement": "Average intraocular pressure in both eyes", "setting": "[1]; [9]", "result": 7.53, "unit": "mmHg"},
      {"measurement": "Change in intraocular pressure", "setting": "[1]; [9]", "result": 3.78, "unit": "mmHg"},
      {"measurement": "Average intraocular pressure in both eyes", "setting": "[1]; [10]", "result": 7.78, "unit": "mmHg"},
      {"measurement": "Change in intraocular pressure", "setting": "[1]; [10]", "result": 1.66, "unit": "mmHg"},
      {"measurement": "Average intraocular pressure in both eyes", "setting": "[1]; [11]", "result": 7.94, "unit": "mmHg"},
      {"measurement": "Change in intraocular pressure", "setting": "[1]; [11]", "result": 1.81, "unit": "mmHg"},
      {"measurement": "Average intraocular pressure in both eyes", "setting": "[1]; [12]", "result": 7.94, "unit": "mmHg"},
      {"measurement": "Change in intraocular pressure", "setting": "[1]; [12]", "result": 1.75, "unit": "mmHg"},
      {"measurement": "Average intraocular pressure in both eyes", "setting": "[1]; [13]", "result": 7.89, "unit": "mmHg"},
      {"measurement": "Change in intraocular pressure", "setting": "[1]; [13]", "result": 1.64, "unit": "mmHg"},
      {"measurement": "Average intraocular pressure in both eyes", "setting": "[1]; [14]", "result": 8.25, "unit": "mmHg"},
      {"measurement": "Change in intraocular pressure", "setting": "[1]; [14]", "result": 3.14, "unit": "mmHg"},
      {"measurement": "Average intraocular pressure in both eyes", "setting": "[1]; [15]", "result": 8.50, "unit": "mmHg"},
      {"measurement": "Change in intraocular pressure", "setting": "[1]; [15]", "result": 2.47, "unit": "mmHg"},
      {"measurement": "Average intraocular pressure in both eyes", "setting": "[1]; [16]", "result": 7.72, "unit": "mmHg"},
      {"measurement": "Change in intraocular pressure", "setting": "[1]; [16]", "result": 2.59, "unit": "mmHg"},
      {"measurement": "Average intraocular pressure in both eyes", "setting": "[1]; [17]", "result": 9.00, "unit": "mmHg"},
      {"measurement": "Change in intraocular pressure", "setting": "[1]; [17]", "result": 1.97, "unit": "mmHg"},
      {"measurement": "Average intraocular pressure in both eyes", "setting": "[1]; [18]", "result": 9.67, "unit": "mmHg"},
      {"measurement": "Change in intraocular pressure", "setting": "[1]; [18]", "result": 1.64, "unit": "mmHg"},
      {"measurement": "Average intraocular pressure in both eyes", "setting": "[1]; [19]", "result": 10.56, "unit": "mmHg"},
      {"measurement": "Change in intraocular pressure", "setting": "[1]; [19]", "result": 1.38, "unit": "mmHg"},
      {"measurement": "Average intraocular pressure in both eyes", "setting": "[1]; [20]", "result": 10.28, "unit": "mmHg"},
      {"measurement": "Change in intraocular pressure", "setting": "[1]; [20]", "result": 2.69, "unit": "mmHg"},
      {"measurement": "Average intraocular pressure in both eyes", "setting": "[1]; [21]", "result": 12.81, "unit": "mmHg"},
      {"measurement": "Change in intraocular pressure", "setting": "[1]; [21]", "result": 1.61, "unit": "mmHg"},
      {"measurement": "Average intraocular pressure in both eyes", "setting": "[1]; [22]", "result": 10.83, "unit": "mmHg"},
      {"measurement": "Change in intraocular pressure", "setting": "[1]; [22]", "result": "−0.94", "unit": "mmHg"},
      {"measurement": "Average intraocular pressure in both eyes", "setting": "[2]; 1 h after administration", "result": 5.50, "unit": "mmHg"},
      {"measurement": "Change in intraocular pressure", "setting": "[2]; 1 h after administration", "result": "−3.39", "unit": "mmHg"},
      {"measurement": "Average intraocular pressure in both eyes", "setting": "[2]; 2 h after administration", "result": 7.06, "unit": "mmHg"},
      {"measurement": "Change in intraocular pressure", "setting": "[2]; 2 h after administration", "result": "−2.50", "unit": "mmHg"},
      {"measurement": "Average intraocular pressure in both eyes", "setting": "[2]; 4 h after administration", "result": 9.00, "unit": "mmHg"},
      {"measurement": "Change in intraocular pressure", "setting": "[2]; 4 h after administration", "result": "−0.89", "unit": "mmHg"},
      {"measurement": "Average intraocular pressure in both eyes", "setting": "[2]; 6 h after administration", "result": 9.17, "unit": "mmHg"},
      {"measurement": "Change in intraocular pressure", "setting": "[2]; 6 h after administration", "result": "−1.61", "unit": "mmHg"},
      {"measurement": "Average intraocular pressure in both eyes", "setting": "[2]; 8 h after administration", "result": 10.61, "unit": "mmHg"},
      {"measurement": "Change in intraocular pressure", "setting": "[2]; 8 h after administration", "result": 0.23, "unit": "mmHg"},
      {"measurement": "Average intraocular pressure in both eyes", "setting": "[2]; 10 h after administration", "result": 12.33, "unit": "mmHg"},
      {"measurement": "Change in intraocular pressure", "setting": "[2]; 10 h after administration", "result": 0.17, "unit": "mmHg"},
      {"measurement": "Average intraocular pressure in both eyes", "setting": "[2]; before administration", "result": 10.17, "unit": "mmHg"},
      {"measurement": "Change in intraocular pressure", "setting": "[2]; before administration", "result": 0.83, "unit": "mmHg"}
    ]}
  ]
}
